The subject of series [1] is L1210 leukemia system. As to conditions: when quaternized; J. Med. Chem. 10, 706, 1967; cited from earlier work.
Series [2] in a line: in vivo. To be noted: mouse. The source says: Due to the high positive charge density and high water solubility, ionenes strongly interact with a wide variety of cell materials.
The test system of series [3] is sulfhydryl groups on the cell periphery. The series can be described thus: Effect of N-ethylmaleimide pretreatment on cell adhesion to ionene-coated surface. Type of series: cell-based. To be noted: pretreatment of the cells. From the text: Chemical interaction with DNA is also a possibility. In fact, ionenes form strong waterinsoluble complexes with DNA.
Series [4] relates to DNA. As to conditions: polyamines, general knowledge; cited from earlier work.
Series [5] in a line: Repeated-dose tolerance of PC-6 and cyclophosphamide in mice. The format is in vivo. As to conditions: similar doses to nine doses of 100 mg/kg per day.
Series [6] is described as follows: in vivo. The source says: Protamine sulfate and toluidine blue, neither of which are free of toxic effects, are clinically used as antiheparin agents.
The nature of series [7]: Protective action of heparin against toxicity of 6,3-ionene bromide, dogs. Type of series: in vivo. From the text:
(§1) This is not surprising considering the formation of relatively stable complexes between ionenes and heparin.

Series [8] is described as follows: Protective action of heparin against toxicity of 6,3-ionene bromide, mice. Type of series: in vivo.
Text: as §1

Turning to `O=C(Nc1ccc(-c2ccncc2)cc1)c1ccc(C(=O)Nc2ccc(-c3ccncc3)cc2)cc1`, in series [1], the “Effectiveness against L1210 leukemia system” value is listed as “very effective against the L1210 leukemia system when quaternized”. As to `C[N+](C)(CBr)CCCCCC[N+](C)(C)CBr`, the figures for the LD50 in series [2] (ip) and in series [2] (po) were 10 to 50 mg/kg and 300 to 500 mg/kg, respectively.

On to `C[N+](C)(CCBr)CCCCCC[N+](C)(C)CCBr`, for which the LD50 – broadly, the dose at which mortality reaches 50% – in series [2] (ip) was in the range of 10 to 50 mg/kg; in series [2] (po), 100 to 200 mg/kg. `C[N+](C)(CBr)CCCC[N+](C)(C)CBr`: the LD50 in series [2] (ip) and in series [2] (po) was greater than 1000 mg/kg throughout. Take `C[N+]1(C)CC[N+](C)(C)CC1`: the LD50 in series [2] (ip) and in series [2] (po) was greater than 1000 mg/kg each time. Regarding `CCN1C(=O)C=CC1=O` [N-ethylmaleimide (NEM), N-ethylmaleimide], the “Effect on cell adhesion on an ionene-coated surface” value in series [3] is reported as “inhibited cell adhesion on an ionene-coated surface”. On to `NCCCCNCCCN` [Spermidine, NH2 (CH2)3 --NH--(CH2)4 NH2], for which the “Binding to DNA” value in series [4] is recorded as “bind to DNA”. Consider `NCCCNCCCCNCCCN` [Spermine, NH2 (CH2)3 NH(CH2)4 NH(CH2)3 NH2], for which the “Binding to DNA” value in series [4] is on record as “bind to DNA”.

`O=P1(N(CCCl)CCCl)NCCCO1` (stereo not drawn) [cyclophosphamide]: in series [5], the “Lethality of similar doses” value is listed as “lethal within a much shorter time”.

For `Cc1cc2nc3ccc(N(C)C)cc3[s+]c2cc1N` [toluidine blue], the LD50 in series [6] (in vivo, iv) turned out to be 45 mg/kg.

As to Heparin, the “Protective action in neutralizing the toxicity of 6,3-ionene bromide” value in series [7] and in series [8] (mice) was “offers a protective action in neutralizing the toxicity of 6,3-ionene bromide” each time. Besides, the “Survival of mice pretreated with heparin” value in series [8] (6,3-ionene bromide doses relative to LD50, heparin pretreatment) is listed as “survive doses three times the LD50 values with only mild toxicity symptoms”.

On to Protamine sulfate, for which the “i.v. LD50” value in series [6] (i.v., comparison agents, species not given) is on record as 44 mg/kg.

Values taken from patent publication US4013507A, “Ionene polymers for selectively inhibiting the vitro growth of malignant cells” (California Institute of Technology, priority 1975, dated 1977).
